Tested on: 699152-130-R-J1-PDC complex spheroid viability
Assay: Anticancer human tumor 699152-130-R-J1-PDC patient-derived pancreatic carcinoma cell line growth inhibition [POLQ]
Settings: for IC50: curve of first compound; for viability, T/C: stronger effect = lower value
In short: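 Complex spheroid viability model combining PDC tumour cells with endothelial (HUVEC) and MSC stromal cells. Novobiocin, ART-558 or RP6685 were tested singly and in combination with standard and investigational anticancer drugs. Each was titrated in half-log steps from near clinical Cmax, or from 10 microM where Cmax was unknown.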

[1] = second compound 0.0316 µM, first compound 0.0316 µM
[2] = second compound 0.0316 µM, first compound 0.1 µM
[3] = second compound 0.0316 µM, first compound 0.316 µM
[4] = second compound 0.0316 µM, first compound 1 µM
[5] = second compound 0.0316 µM, first compound 3.16 µM
[6] = second compound 0.0316 µM, first compound 10 µM
[7] = second compound 0.1 µM, first compound 0.0316 µM
[8] = second compound 0.1 µM, first compound 0.1 µM
[9] = second compound 0.1 µM, first compound 0.316 µM
[10] = second compound 0.1 µM, first compound 1 µM
[11] = second compound 0.1 µM, first compound 3.16 µM
[12] = second compound 0.1 µM, first compound 10 µM
[13] = second compound 0.316 µM, first compound 0.0316 µM
[14] = second compound 0.316 µM, first compound 0.1 µM
[15] = second compound 0.316 µM, first compound 0.316 µM
[16] = second compound 0.316 µM, first compound 1 µM
[17] = second compound 0.316 µM, first compound 3.16 µM
[18] = second compound 0.316 µM, first compound 10 µM
[19] = second compound 1 µM, first compound 0.0316 µM
[20] = second compound 1 µM, first compound 0.1 µM
[21] = second compound 1 µM, first compound 0.316 µM
[22] = second compound 1 µM, first compound 1 µM
[23] = second compound 1 µM, first compound 3.16 µM
[24] = second compound 1 µM, first compound 10 µM
[25] = second compound 3.16 µM, first compound 0.0316 µM
[26] = second compound 3.16 µM, first compound 0.1 µM
[27] = second compound 3.16 µM, first compound 0.316 µM
[28] = second compound 3.16 µM, first compound 1 µM
[29] = second compound 3.16 µM, first compound 3.16 µM
[30] = second compound 3.16 µM, first compound 10 µM
[31] = second compound 10 µM, first compound 0.0316 µM
[32] = second compound 10 µM, first compound 0.1 µM
[33] = second compound 10 µM, first compound 0.316 µM
[34] = second compound 10 µM, first compound 1 µM
[35] = second compound 10 µM, first compound 3.16 µM
[36] = second compound 10 µM, first compound 10 µM
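Further: spheroids exposed to agents for 7 days before viability reading.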
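Wherever viability, T/C is given: percent of DMSO vehicle control viability so 100% = vehicle and 0% = no viable signal.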

## O=C(Nc1ccc(O)c(NS(=O)(=O)c2ccc(F)cc2)c1)c1ccc(-c2ccccc2)cc1 + Cc1cccc(N(C)C(=O)C2C(O)CCN2c2nc(C)cc(C(F)(F)F)c2C#N)c1
Second compound 0.0316 µM
  IC50: > 10 µM
Second compound 0.1 µM
  IC50: > 10 µM
Second compound 0.316 µM
  IC50: > 10 µM
Second compound 1 µM
  IC50: > 10 µM
Second compound 3.16 µM
  IC50: > 10 µM
Second compound 10 µM
  IC50: > 10 µM
[1]
  viability, T/C: 107%
[2]
  viability, T/C: 91.1%
[3]
  viability, T/C: 95.9%
[4]
  viability, T/C: 102%
[5]
  viability, T/C: 108%
[6]
  viability, T/C: 78%
[7]
  viability, T/C: 110%
[8]
  viability, T/C: 103%
[9]
  viability, T/C: 100%
[10]
  viability, T/C: 106%
[11]
  viability, T/C: 101%
[12]
  viability, T/C: 78.7%
[13]
  viability, T/C: 111%
[14]
  viability, T/C: 104%
[15]
  viability, T/C: 114%
[16]
  viability, T/C: 105%
[17]
  viability, T/C: 98.4%
[18]
  viability, T/C: 69.3%
[19]
  viability, T/C: 103%
[20]
  viability, T/C: 110%
[21]
  viability, T/C: 111%
[22]
  viability, T/C: 97%
[23]
  viability, T/C: 107%
[24]
  viability, T/C: 83.3%
[25]
  viability, T/C: 107%
[26]
  viability, T/C: 112%
[27]
  viability, T/C: 111%
[28]
  viability, T/C: 102%
[29]
  viability, T/C: 114%
[30]
  viability, T/C: 81.2%
[31]
  viability, T/C: 89.1%
[32]
  viability, T/C: 96%
[33]
  viability, T/C: 103%
[34]
  viability, T/C: 95.1%
[35]
  viability, T/C: 97%
[36]
  viability, T/C: 63.7%

## COc1cc2cc(C(=O)CCC(=O)O)sc2cc1OC + Cc1cccc(N(C)C(=O)C2C(O)CCN2c2nc(C)cc(C(F)(F)F)c2C#N)c1
Second compound 0.0316 µM
  IC50: > 10 µM
Second compound 0.1 µM
  IC50: > 10 µM
Second compound 0.316 µM
  IC50: > 10 µM
Second compound 1 µM
  IC50: > 10 µM
Second compound 3.16 µM
  IC50: > 10 µM
Second compound 10 µM
  IC50: > 10 µM
[1]
  viability, T/C: 99.4%
[2]
  viability, T/C: 91.8%
[3]
  viability, T/C: 92.6%
[4]
  viability, T/C: 98.7%
[5]
  viability, T/C: 110%
[6]
  viability, T/C: 95.3%
[7]
  viability, T/C: 113%
[8]
  viability, T/C: 108%
[9]
  viability, T/C: 106%
[10]
  viability, T/C: 90.3%
[11]
  viability, T/C: 121%
[12]
  viability, T/C: 93.2%
[13]
  viability, T/C: 93%
[14]
  viability, T/C: 105%
[15]
  viability, T/C: 92.5%
[16]
  viability, T/C: 102%
[17]
  viability, T/C: 114%
[18]
  viability, T/C: 94.9%
[19]
  viability, T/C: 94.8%
[20]
  viability, T/C: 99.4%
[21]
  viability, T/C: 92.1%
[22]
  viability, T/C: 106%
[23]
  viability, T/C: 107%
[24]
  viability, T/C: 107%
[25]
  viability, T/C: 102%
[26]
  viability, T/C: 97.8%
[27]
  viability, T/C: 104%
[28]
  viability, T/C: 105%
[29]
  viability, T/C: 89.1%
[30]
  viability, T/C: 93.3%
[31]
  viability, T/C: 92.2%
[32]
  viability, T/C: 102%
[33]
  viability, T/C: 105%
[34]
  viability, T/C: 96%
[35]
  viability, T/C: 98.9%
[36]
  viability, T/C: 103%

## O=C(Nc1ccc(O)c(NS(=O)(=O)c2ccc(F)cc2)c1)c1ccc(-c2ccccc2)cc1 + COC1C(OC(N)=O)C(O)C(Oc2ccc3c(O)c(NC(=O)c4ccc(O)c(CC=C(C)C)c4)c(=O)oc3c2C)OC1(C)C
Second compound 0.0316 µM
  IC50: > 10 µM
Second compound 0.1 µM
  IC50: > 10 µM
Second compound 0.316 µM
  IC50: > 10 µM
Second compound 1 µM
  IC50: > 10 µM
Second compound 3.16 µM
  IC50: > 10 µM
Second compound 10 µM
  IC50: > 10 µM
[1]
  viability, T/C: 105%
[2]
  viability, T/C: 123%
[3]
  viability, T/C: 117%
[4]
  viability, T/C: 104%
[5]
  viability, T/C: 122%
[6]
  viability, T/C: 80.8%
[7]
  viability, T/C: 103%
[8]
  viability, T/C: 104%
[9]
  viability, T/C: 117%
[10]
  viability, T/C: 101%
[11]
  viability, T/C: 101%
[12]
  viability, T/C: 94.6%
[13]
  viability, T/C: 103%
[14]
  viability, T/C: 101%
[15]
  viability, T/C: 95.7%
[16]
  viability, T/C: 101%
[17]
  viability, T/C: 117%
[18]
  viability, T/C: 77.3%
[19]
  viability, T/C: 115%
[20]
  viability, T/C: 99.6%
[21]
  viability, T/C: 97.2%
[22]
  viability, T/C: 94.5%
[23]
  viability, T/C: 103%
[24]
  viability, T/C: 82.3%
[25]
  viability, T/C: 108%
[26]
  viability, T/C: 111%
[27]
  viability, T/C: 113%
[28]
  viability, T/C: 119%
[29]
  viability, T/C: 105%
[30]
  viability, T/C: 89.5%
[31]
  viability, T/C: 95.3%
[32]
  viability, T/C: 107%
[33]
  viability, T/C: 102%
[34]
  viability, T/C: 95.5%
[35]
  viability, T/C: 103%
[36]
  viability, T/C: 86.3%

## COc1cc2cc(C(=O)CCC(=O)O)sc2cc1OC + COC1C(OC(N)=O)C(O)C(Oc2ccc3c(O)c(NC(=O)c4ccc(O)c(CC=C(C)C)c4)c(=O)oc3c2C)OC1(C)C
Second compound 0.0316 µM
  IC50: > 10 µM
Second compound 0.1 µM
  IC50: > 10 µM
Second compound 0.316 µM
  IC50: > 10 µM
Second compound 1 µM
  IC50: > 10 µM
Second compound 3.16 µM
  IC50: > 10 µM
Second compound 10 µM
  IC50: > 10 µM
[1]
  viability, T/C: 104%
[2]
  viability, T/C: 113%
[3]
  viability, T/C: 97.1%
[4]
  viability, T/C: 95.8%
[5]
  viability, T/C: 106%
[6]
  viability, T/C: 103%
[7]
  viability, T/C: 91.2%
[8]
  viability, T/C: 109%
[9]
  viability, T/C: 94.3%
[10]
  viability, T/C: 93.7%
[11]
  viability, T/C: 103%
[12]
  viability, T/C: 97.5%
[13]
  viability, T/C: 107%
[14]
  viability, T/C: 110%
[15]
  viability, T/C: 105%
[16]
  viability, T/C: 108%
[17]
  viability, T/C: 101%
[18]
  viability, T/C: 95.8%
[19]
  viability, T/C: 110%
[20]
  viability, T/C: 105%
[21]
  viability, T/C: 93%
[22]
  viability, T/C: 102%
[23]
  viability, T/C: 98.6%
[24]
  viability, T/C: 103%
[25]
  viability, T/C: 110%
[26]
  viability, T/C: 98.6%
[27]
  viability, T/C: 107%
[28]
  viability, T/C: 92.4%
[29]
  viability, T/C: 109%
[30]
  viability, T/C: 102%
[31]
  viability, T/C: 113%
[32]
  viability, T/C: 100%
[33]
  viability, T/C: 120%
[34]
  viability, T/C: 107%
[35]
  viability, T/C: 98.8%
[36]
  viability, T/C: 106%

Reference: PubChem BioAssay AID1963835 (Molecular Pharmacology Branch, DTP, NCI, 2024)
